According to patent US20140315933A1, “CHEMICAL COMPOUNDS” (Pfizer Limited, priority 2013, published 2014):
Structures can show the parent of a compound that is named as a salt. Where two headings read alike, the source gives them in different places.

Target: T1, URAT-1 transporter (Homo sapiens, UniProt Q96S37)
T1 construct: expressed in transfected cells
Assay: URAT-1 inhibitor activity: [14C]-uric acid uptake into CHO-URAT1(L)GFP#8 (CHO#8) cells, scintillation proximity
Type: cell-based
Excerpt: The nucleotide sequence for the long isoform of URAT1 (NM_144585) was C-terminally fused to that of enhanced green fluorescent protein (eGFP) (hereinafter referred to as URAT1(L)GFP). The combined sequence was codon-optimised and custom synthesized. The synthesized sequence was generated in pDONR221 Gateway entry vector (Invitrogen Life Technologies) prior to cloning in pLenti6.3/V5 Gateway destination vector (Invitrogen Life Technologies).
Lentiviral particles were generated according to ViraPower HiPerform expression system procedure (Invitrogen Life Technologies) and used to transduce CHO cells. Blasticidin selection enabled the generation of a stable clonal pool of cells, confirmed by expression of GFP and V5 epitope. The clonal pools were sorted using fluorescence-activated cell sorting (FACS) on the basis of GFP expression with the gating set at the top 50% of expression into single cells which were subsequently expanded to generate clonal lines. […] This cell line was used for all screening activities and is referred to as CHO-URAT1(L)GFP#8 or CHO#8.
The potency of the compounds of formula (I) as inhibitors of the URAT-1 transporter was determined as follows.
CHO#8 cells were cultured in cell line maintenance flasks in medium consisting of Dulbecco's modified Eagle medium (DMEM) with high glucose and sodium pyruvate (4.5 g of glucose per litre, Invitrogen Life Technologies), supplemented with heat-inactivated foetal bovine serum (FBC, 10% v/v), 1×NEAA (non-essential amino acids) and blasticidin (10 μg/ml). Cultures were grown in 175 cm^2 tissue culture flasks in a humidified incubator at approximately 37° C. in approximately 95% air/5% CO2. Near confluent CHO#8 cell cultures were harvested by trypsinisation, re-suspended in culture medium and the process was repeated once or twice weekly to provide sufficient cells for use.
Assay ready flasks were generated by the same method, except the cells were not cultured in blasticidin.
Assay ready frozen cells were generated by freezing 40,000,000 cells in 1 ml of FBS (without blasticidin) containing 10% DMSO per vial. One vial was sufficient for 5 assay plates. Each vial was thawed rapidly to 37° C., washed and re-suspended in pre-warmed culture medium for seeding onto assay plates.
CHO#8 cells were seeded onto Cytostar™ 96-well plates at a density of […]. The cells were cultured for 1 day at approximately 37° C. in a humidified incubator containing approximately 5% CO2 in air. After approximately 24 hours culture, cells were used for uptake experiments.
On the day of assay, culture medium was removed from the wells and the cells were washed once with 50 μL of chloride-containing buffer (136.7 mM NaCl, 5.36 mM KCl, 0.952 mM CaCl2, 0.441 mM KH2PO4, 0.812 mM MgSO4, 5.6 mM D-glucose, 0.383 mM Na2HPO4.2H2O, 10 mM HEPES, pH 7.4 with NaOH). The cells were pre-incubated with another 50 μL of chloride-containing buffer for one hour at approximately 37° C. in a humidified incubator containing approximately 5% CO2 in air.
Assay compound plates were prepared by diluting the compounds of formula (I) with chloride-free buffer (125 mM Na-gluconate, 4.8 mM K-gluconate, 1.3 mM Ca-gluconate, 1.2 mM KH2PO4, 1.2 mM MgSO4, 5.6 mM D-glucose, 25 mM HEPES, pH 7.4 with NaOH) in 100% DMSO to a final concentration of 1% DMSO. [^14C]-Uric Uric acid working stock was made by addition of radiolabeled compound to a final concentration of 120 nM in chloride-free buffer. In all wells, the final assay concentration of solvent (DMSO) was 0.25%; the final assay concentration of [^14C]-uric acid was 30 nM in chloride-free buffer and the final compound of formula (I) concentrations ranged from 0 to 10 μM.
After pre-incubation, cells were washed with 50 μL of chloride-free buffer and another 50 μL of chloride-free buffer was added. […]

[1] = inhibition of [14C]-uric acid (30 nM) uptake into CHO#8 cells, compound 0 to 10 μM, 4 parameter logistic fit

Compound	IC50 [1] [µM]	IC50 [µM]
3-chloro-4-(4-chlorophenoxy)-N-(1,2,4-thiadiazol-5-yl)benzenesulfonamide diethylamine salt [Example 62]	0.722	–
5-chloro-4-(3,4-difluorophenoxy)-2-fluoro-N-(1,3-thiazol-4-yl)benzenesulfonamide [compound 230]	0.747	–
N#Cc1ccc(Oc2ccc(S(=O)(=O)Nc3nccs3)cc2C#N)cc1Cl [Example 1, 4-(3-chloro-4-cyanophenoxy)-3-cyano-N-(1,3-thiazol-2-yl)benzenesulfonamide]	–	0.058
CCc1cc(F)ccc1Oc1ccc(S(=O)(=O)Nc2ncns2)cc1CC [Example 2, 3-ethyl-4-(2-ethyl-4-fluorophenoxy)-N-(1,2,4-thiadiazol-5-yl)benzenesulfonamide diethylamine salt]	–	0.064
CCc1cc(F)ccc1Oc1ccc(S(=O)(=O)Nc2ncns2)cc1I [Example 3, 4-(2-ethyl-4-fluorophenoxy)-3-iodo-N-(1,2,4-thiadiazol-5-yl)benzenesulfonamide]	–	0.069
Cn1ccc(NS(=O)(=O)c2ccc(Oc3ccc(C#N)c(Cl)c3)c(C#N)c2)n1 [Example 4, 4-(3-chloro-4-cyanophenoxy)-3-cyano-N-(1-methyl-1H-pyrazol-3-yl)benzenesulfonamide diethylamine salt]	–	3.36
Cc1cc(NS(=O)(=O)c2ccc(Oc3ccc(C#N)c(Cl)c3)c(C#N)c2)no1 [Example 5, 4-(3-chloro-4-cyanophenoxy)-3-cyano-N-(5-methyl-1,2-oxazol-3-yl)benzenesulfonamide diethylamine salt]	–	> 10
O=S(=O)(Nc1nccs1)c1ccc(Oc2ccc(C(F)(F)F)cc2C(F)(F)F)c(F)c1 [Example 6, 4-[2,4-bis(trifluoromethyl)phenoxy]-3-fluoro-N-(1,3-thiazol-2-yl)benzenesulfonamide]	–	> 10
N#Cc1cc(S(=O)(=O)Nc2nccs2)ccc1Oc1ccc(CO)cc1F [Example 7, 3-cyano-4-[2-fluoro-4-(hydroxymethyl)phenoxy]-N-(1,3-thiazol-2-yl)benzenesulfonamide, diethylamine salt]	–	0.141
N#Cc1cc(S(=O)(=O)Nc2nccs2)ccc1Oc1ccc(Br)cc1CO [Example 8, 4-[4-bromo-2-(hydroxymethyl)phenoxy]-3-cyano-N-(1,3-thiazol-2-yl)benzenesulfonamide]	–	2.14
COc1cc(Cl)c(Cl)cc1Oc1ccc(S(=O)(=O)Nc2ncns2)cc1C#N [Example 9, 3-cyano-4-(4,5-dichloro-2-methoxyphenoxy)-N-(1,2,4-thiadiazol-5-yl)benzenesulfonamide]	–	> 2.81
COc1ccc(Cl)cc1Oc1ccc(S(=O)(=O)Nc2ncns2)cc1C#N [Example 10, 4-(5-chloro-2-methoxyphenoxy)-3-cyano-N-(1,2,4-thiadiazol-5-yl)benzenesulfonamide diethylamine salt]	–	> 5.76
CC(C)Oc1ccc(Cl)cc1Oc1ccc(S(=O)(=O)Nc2ncns2)cc1C#N [Example 11, 4-[5-chloro-2-(propan-2-yloxy)phenoxy]-3-cyano-N-(1,2,4-thiadiazol-5-yl)benzenesulfonamide diethylamine salt]	–	1.38
CCOc1cc(Cl)ccc1Oc1ccc(S(=O)(=O)Nc2ncns2)cc1C#N [Example 12, 4-(4-chloro-2-ethoxyphenoxy)-3-cyano-N-(1,2,4-thiadiazol-5-yl)benzenesulfonamide]	–	0.354
N#Cc1cc(S(=O)(=O)Nc2ncns2)ccc1Oc1ccc(Cl)cc1 [Example 13, 4-(4-chlorophenoxy)-3-cyano-N-(1,2,4-thiadiazol-5-yl)benzenesulfonamide diethylamine salt]	–	1.27
CC(C)c1cccc(Oc2ccc(S(=O)(=O)Nc3ncns3)cc2C#N)c1 [Example 14, 3-cyano-4-[3-(propan-2-yl)phenoxy]-N-(1,2,4-thiadiazol-5-yl)benzenesulfonamide diethylamine salt]	–	> 2.9
N#Cc1ccc(Oc2ccc(S(=O)(=O)Nc3ncns3)cc2C#N)cc1 [Example 15, 3-cyano-4-(4-cyanophenoxy)-N-(1,2,4-thiadiazol-5-yl)benzenesulfonamide diethylamine salt]	–	> 7.37
N#Cc1cc(S(=O)(=O)Nc2ncns2)ccc1Oc1ccc(Cl)cc1Cl [Example 16, 3-cyano-4-(4,6-dichlorophenoxy)-N-(1,2,4-thiadiazol-5-yl)benzenesulfonamide]	–	0.428
CCOc1ncccc1Oc1ccc(S(=O)(=O)Nc2ncns2)cc1C#N [Example 17, 3-cyano-4-[(2-ethoxypyridin-3-yl)oxy]-N-(1,2,4-thiadiazol-5-yl)benzenesulfonamide diethylamine salt]	–	0.161
COc1ccncc1Oc1ccc(S(=O)(=O)Nc2ncns2)cc1C#N [Example 18, 3-cyano-4-[(4-methoxypyridin-3-yl)oxy]-N-(1,2,4-thiadiazol-5-yl)benzenesulfonamide]	–	> 10
N#Cc1cc(S(=O)(=O)Nc2ncns2)ccc1Oc1cncc(Cl)c1 [Example 19, 4-[(5-chloropyridin-3-yl)oxy]-3-cyano-N-(1,2,4-thiadiazol-5-yl)benzenesulfonamide]	–	> 10
COc1ccc(Oc2ccc(S(=O)(=O)Nc3ncns3)cc2C#N)cn1 [Example 20, 3-cyano-4-[(6-methoxypyridin-3-yl)oxy]-N-(1,2,4-thiadiazol-5-yl)benzenesulfonamide]	–	> 7.52
N#Cc1cc(S(=O)(=O)Nc2ncns2)ccc1Oc1ccc(C(F)(F)F)nc1 [Example 21, 3-cyano-N-(1,2,4-thiadiazol-5-yl)-4-{[6-(trifluoromethyl)pyridin-3-yl]oxy}benzenesulfonamide]	–	> 10
N#Cc1cc(Cl)ccc1Oc1ccc(S(=O)(=O)Nc2ncns2)cc1C#N [Example 22, 4-(4-chloro-2-cyanophenoxy)-3-cyano-N-(1,2,4-thiadiazol-5-yl)benzenesulfonamide]	–	3.16
N#Cc1ccc(Oc2ccc(S(=O)(=O)Nc3ncns3)cc2C#N)c(OC(F)F)c1 [Example 23, 3-cyano-4-[4-cyano-2-(difluoromethoxy)phenoxy]-N-(1,2,4-thiadiazol-5-yl)benzenesulfonamide]	–	> 10
N#Cc1ccc(OC(F)F)c(Oc2ccc(S(=O)(=O)Nc3ncns3)cc2C#N)c1 [Example 24, 3-cyano-4-[5-cyano-2-(difluoromethoxy)phenoxy]-N-(1,2,4-thiadiazol-5-yl)benzenesulfonamide diethylamine salt]	–	> 10
COc1cc(C(F)(F)F)ccc1Oc1ccc(S(=O)(=O)Nc2ncns2)cc1C#N [Example 25, 3-cyano-4-[2-methoxy-4-(trifluoromethyl)phenoxy]-N-(1,2,4-thiadiazol-5-yl)benzenesulfonamide diethylamine salt]	–	> 10
COc1cc(Cl)cc(Cl)c1Oc1ccc(S(=O)(=O)Nc2ncns2)cc1C#N [Example 26, 3-cyano-4-(2,4-dichloro-6-methoxyphenoxy)-N-(1,2,4-thiadiazol-5-yl)benzenesulfonamide diethylamine salt]	–	0.875
COc1cc(OC(F)(F)F)ccc1Oc1ccc(S(=O)(=O)Nc2ncns2)cc1C#N [Example 27, 3-cyano-4-[2-methoxy-4-(trifluoromethoxy)phenoxy]-N-(1,2,4-thiadiazol-5-yl)benzenesulfonamide diethylamine salt]	–	> 10
COc1ccc(OC(F)(F)F)cc1Oc1ccc(S(=O)(=O)Nc2ncns2)cc1C#N [Example 28, 3-cyano-4-[2-methoxy-5-(trifluoromethoxy)phenoxy]-N-(1,2,4-thiadiazol-5-yl)benzenesulfonamide diethylamine salt]	–	> 7.45
